Calls of active or inactive are those of the source.
What was measured:
[1] = system: Mus musculus; test: Antinociceptive activity in Kunming mouse model assessed as increase in paw withdrawal latency at 10 micromol/kg, sc pretreated with sc dosed naloxone for 5 mins followed by compound addition by radiant heat paw withdrawal assay; type: functional, organism-based; details: dose 10.0 µmol/kg
[2] = system: Mus musculus; test: Antiallodynic activity in icv dosed Kunming mouse model of CFA-induced inflammatory pain assessed as increase in ipsilateral withdrawal threshold measured upto 50 mins by von Frey test; type: functional, organism-based; details: dose 0.67-6.7 nmol, time min <=50
[3] = biological target: Mu-type opioid receptor (Homo sapiens, UniProt P35372); test: Agonist activity at mu-opioid receptor (unknown origin) expressed in HEK293 cells assessed as inhibition of forskolin-induced cAMP accumulation incubated for 15 mins by ELISA; type: functional, cell-based
Mu-type opioid receptor (Homo sapiens, UniProt P35372), sequence (P35372 whole entry): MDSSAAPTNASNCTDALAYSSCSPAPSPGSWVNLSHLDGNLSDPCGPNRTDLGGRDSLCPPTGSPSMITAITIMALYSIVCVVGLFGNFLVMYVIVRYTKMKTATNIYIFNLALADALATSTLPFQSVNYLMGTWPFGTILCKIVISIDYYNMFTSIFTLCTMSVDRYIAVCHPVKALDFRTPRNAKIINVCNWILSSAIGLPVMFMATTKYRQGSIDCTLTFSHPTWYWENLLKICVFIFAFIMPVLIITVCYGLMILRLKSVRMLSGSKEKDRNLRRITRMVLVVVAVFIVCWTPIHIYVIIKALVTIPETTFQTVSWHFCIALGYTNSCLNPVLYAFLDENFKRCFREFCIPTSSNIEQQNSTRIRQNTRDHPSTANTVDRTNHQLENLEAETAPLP

[4] = Toxicity in Kunming mouse model assessed as conditioned place preference time at 20 nmol, icv; details: in vivo, icv_or_intrathecal
[5] = system: Mus musculus; test: Antiallodynic activity in Kunming mouse model of spared nerve injury-induced neuropathic pain assessed as increase in paw withdrawal threshold at 0.67 to 6.7 nmol, icv at 10 mins by von Frey test; type: functional, organism-based; details: dose 0.67-6.7 nmol
[6] = system: Mus musculus; test: Antinociceptive activity in Kunming mouse model assessed as increase in paw withdrawal latency at 0.67 to 20 nmol, icv measured after 10 mins by radiant heat paw withdrawal assay; type: functional, organism-based; details: dose 0.67-20 nmol
[7] = Toxicity in Kunming mouse model assessed as conditioned place preference time at 10 micromol/kg, sc; details: in vivo, dose 10 µmol/kg
[8] = biological target: Delta-type opioid receptor (Rattus norvegicus, UniProt P33533); test: Displacement of [3H]DPDPE from DOR in Wistar rat brain membranes measured after 3 hrs by scintillation counting method; type: cell membranes, Membrane
Delta-type opioid receptor, sequence (P33533 whole entry): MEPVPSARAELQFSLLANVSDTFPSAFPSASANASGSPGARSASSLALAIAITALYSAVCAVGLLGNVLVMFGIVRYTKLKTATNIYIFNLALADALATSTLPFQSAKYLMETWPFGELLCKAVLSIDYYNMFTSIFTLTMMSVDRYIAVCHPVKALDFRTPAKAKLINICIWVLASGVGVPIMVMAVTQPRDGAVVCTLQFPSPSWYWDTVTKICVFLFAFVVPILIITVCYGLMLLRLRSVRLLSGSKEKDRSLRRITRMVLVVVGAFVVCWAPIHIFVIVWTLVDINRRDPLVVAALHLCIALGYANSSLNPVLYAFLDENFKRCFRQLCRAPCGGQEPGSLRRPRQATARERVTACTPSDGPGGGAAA

[9] = system: Mus musculus; test: Antinociceptive activity in Kunming mouse model assessed as increase in paw withdrawal latency at 0.67 to 20 nmol, icv measured upto 50 mins by radiant heat paw withdrawal assay; type: functional, organism-based; details: dose 0.67-20 nmol, time min <=50
[10] = system: Mus musculus; test: Antiallodynic activity in icv dosed Kunming mouse model of spared nerve injury-induced neuropathic pain assessed as increase in paw withdrawal threshold measured upto 50 mins by von Frey test; type: functional, organism-based; details: dose 0.67-6.7 nmol, time min <=50
[11] = species: Rattus norvegicus; test: Selectivity index, ratio of Ki for displacement of [3H]DPDPE from DOR in Wistar rat brain membranes to Ki for displacement of [3H]DAMGO from MOR in Wistar rat brain membranes; type: cell membranes
[12] = species: Mus musculus; test: Antinociceptive tolerance in Kunming mouse pretreated with saline for 2 hrs followed by compound addition by radiant heat paw withdrawal test; type: functional
[13] = species: Mus musculus; test: Antinociceptive tolerance in Kunming mouse pretreated with 3 times ED50 of compound for 2 hrs followed by challenge with second dose of compound by radiant heat paw withdrawal test; type: functional
[14] = system: Mus musculus; test: Antiallodynic activity in Kunming mouse model of CFA-induced inflammatory pain assessed as increase in ipsilateral withdrawal threshold at 10 micromol/kg, sc measured at 10 to 50 mins by von Frey test; type: functional, organism-based; details: dose 10.0 µmol/kg, time 10-50 min
[15] = system: Mus musculus; test: Antinociceptive activity in Kunming mouse model assessed as increase in paw withdrawal latency at 20 nmol, icv pretreated for 20 mins with naloxonazine followed by compound addition and measured upto 10 mins by radiant heat paw withdrawal assay; type: functional, organism-based; details: time min <=10
[16] = system: Mus musculus; test: Antiallodynic activity in Kunming mouse model of spared nerve injury-induced neuropathic pain assessed as increase in paw withdrawal threshold at 10 micromol/kg, sc by von Frey test; type: functional, organism-based; details: dose 10.0 µmol/kg
[17] = Metabolic stability in Kunming mouse serum assessed as half life measured upto 480 mins by RP-HPLC analysis; type: ADME, cell-free
[18] = Toxicity in Kunming mouse assessed as effect on motor coordination at 10 micromol/kg, sc by rotarod test; type: organism-based; details: in vivo, dose 10 µmol/kg
[19] = system: Mus musculus; test: Antinociceptive activity in Kunming mouse model assessed as increase in paw withdrawal latency at 10 micromol/kg, sc pretreated with icv dosed naloxone methiodide for 5 mins followed by compound addition by radiant heat paw withdrawal assay; type: functional, organism-based; details: dose 10.0 µmol/kg
[20] = system: Mus musculus; test: Antinociceptive activity in Kunming mouse model assessed as increase in paw withdrawal latency at 20 nmol, icv pretreated for 4 hrs with beta-FNA followed by compound addition and measured upto 10 mins by radiant heat paw withdrawal assay; type: functional, organism-based; details: time min <=10
[21] = system: Ileum; test: Inhibition of electric-field induced guinea pig ileum contraction; type: functional, tissue-based; details: Cavia porcellus
[22] = system: Vas deferens; test: Inhibition of electric-field induced mouse vas deferens contraction; type: functional, tissue-based
[23] = system: Mus musculus; test: Antinociceptive activity in Kunming mouse model assessed as increase in paw withdrawal latency at 10 micromol/kg, sc pretreated with icv dosed naloxone for 5 mins followed by compound addition by radiant heat paw withdrawal assay; type: functional, organism-based; details: dose 10.0 µmol/kg
[24] = system: Mus musculus; test: Antinociceptive tolerance in Kunming mouse pretreated with compound for 3 hrs followed by challenge with second dose of compound at 20 nmol, icv and measured after 3 hrs by radiant heat paw withdrawal test; type: functional, organism-based; details: time 6.0 hrs
[25] = biological target: Mu-type opioid receptor (Rattus norvegicus, UniProt P33535); test: Displacement of [3H]DAMGO from MOR in Wistar rat brain membranes measured after 1 hr by scintillation counting method; type: cell membranes, Membrane
Mu-type opioid receptor (Rattus norvegicus, UniProt P33535), sequence (P33535 whole entry): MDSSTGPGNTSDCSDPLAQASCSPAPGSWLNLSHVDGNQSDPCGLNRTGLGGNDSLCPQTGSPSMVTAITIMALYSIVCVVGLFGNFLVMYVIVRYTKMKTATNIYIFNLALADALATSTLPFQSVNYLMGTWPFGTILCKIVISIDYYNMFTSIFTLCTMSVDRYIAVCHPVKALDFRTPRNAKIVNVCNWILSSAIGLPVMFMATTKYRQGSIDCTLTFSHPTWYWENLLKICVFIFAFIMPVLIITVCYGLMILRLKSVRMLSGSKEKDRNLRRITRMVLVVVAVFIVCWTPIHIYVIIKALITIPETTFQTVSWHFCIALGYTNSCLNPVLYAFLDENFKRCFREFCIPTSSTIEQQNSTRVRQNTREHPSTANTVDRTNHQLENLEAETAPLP

[26] = system: Mus musculus; test: Antinociceptive activity in Kunming mouse model assessed as increase in paw withdrawal latency at 10 micromol/kg, sc by radiant heat paw withdrawal assay; type: functional, organism-based; details: dose 10.0 µmol/kg
[27] = system: Mus musculus; test: Antiallodynic activity in Kunming mouse model of CFA-induced inflammatory pain assessed as increase in ipsilateral withdrawal threshold at 0.67 to 6.7 nmol, icv by von Frey test; type: functional, organism-based; details: dose 0.67-6.7 nmol, time 10-50 min, TDE = time-dependent effect
[28] = system: Mus musculus; test: Antinociceptive activity in Kunming mouse model assessed as increase in paw withdrawal latency at 10 micromol/kg, sc pretreated with sc dosed naloxone methiodide for 5 mins followed by compound addition by radiant heat paw withdrawal assay; type: functional, organism-based; details: dose 10.0 µmol/kg
[29] = system: Mus musculus; test: Antiallodynic activity in Kunming mouse model of spared nerve injury-induced neuropathic pain assessed as increase in paw withdrawal threshold at 0.67 to 6.7 nmol, icv after 50 mins by von Frey test; type: functional, organism-based; details: dose 0.67-6.7 nmol
[30] = system: Mus musculus; test: Antinociceptive tolerance in Kunming mouse pretreated with compound for 3 hrs followed by challenge with second dose of compound at 20 nmol, icv and measured after 2 to 2.5 hrs by radiant heat paw withdrawal test; type: functional, organism-based; details: time lower 5.0 hrs, time upper […]
[31] = system: Mus musculus; test: Antiallodynic activity in icv dosed Kunming mouse model of spared nerve injury-induced neuropathic pain assessed as increase in ipsilateral withdrawal threshold by von Frey test; type: functional, organism-based; details: dose 0.67-6.7 nmol
[32] = Metabolic stability in Kunming mouse brain assessed as half life measured upto 480 mins by RP-HPLC analysis; type: ADME, tissue-based
[33] = system: Mus musculus; test: Antiallodynic activity in Kunming mouse model of CFA-induced inflammatory pain assessed as increase in ipsilateral withdrawal threshold at 0.67 to 6.7 nmol, icv measured at 10 to 50 mins by von Frey test; type: functional, organism-based; details: dose 0.67-6.7 nmol, time 10-50 min
[34] = system: Mus musculus; test: Antiallodynic activity in Kunming mouse model of spared nerve injury-induced neuropathic pain assessed as increase in paw withdrawal threshold at 0.67 to 6.7 nmol, icv by von Frey test; type: functional, organism-based; details: dose 0.67-6.7 nmol, time min <=50, TDE = time-dependent effect
[35] = system: Mus musculus; test: Antinociceptive activity in Kunming mouse model assessed as increase in paw withdrawal latency at 20 nmol, icv pretreated for 10 mins with naloxone followed by compound addition and measured upto 10 mins by radiant heat paw withdrawal assay; type: functional, organism-based; details: time min <=10
[36] = system: Mus musculus; test: Antinociceptive activity in Kunming mouse model assessed as maximum possible effect at 10 micromol/kg, sc by radiant heat paw withdrawal assay; type: functional; details: dose 10 µmol/kg
[37] = system: Mus musculus; test: Antinociceptive activity in Kunming mouse model assessed as increase in paw withdrawal latency at 20 nmol, icv pretreated for 20 mins with NTI followed by compound addition and measured upto 10 mins by radiant heat paw withdrawal assay; type: functional, organism-based; details: time min <=10

| SMILES | Activity [1] | Activity [2] | EC50 [3] [nM] | Time [4] [s] | Activity [5] | Activity [6] | Time [7] [s] | Ki [8] [nM] | Activity [9] | Activity [10] | Ratio Ki [11] | ED50 [12] [nmol] | ED50 [13] [nmol] | Activity [14] | Activity [15] | Activity [16] | half-life [17] [h] | Activity [18] | Activity [19] | Activity [20] | further results |
| --- | --- | --- | --- | --- | --- | --- | --- | --- | --- | --- | --- | --- | --- | --- | --- | --- | --- | --- | --- | --- | --- |
| Cc1cc(O)cc(C)c1C[C@H](N)C(=O)N[C@H]1CSSC[C@@H](C(=O)NCC(=O)N[C@H](CCCNC(=N)N)C(=O)N[C@H](CCCNC(=N)N)C(=O)O)NC(=O)[C@H](Cc2ccc(Cl)cc2)NC(=O)[C@H](Cc2ccccc2)NC1=O | inactive | Dose-Dependent Effect | 14.3 | 450 | Active | Active | 453 | 4270 | Active | Dose-Dependent Effect | 705 | 2.3 | 3.5 | Active | inactive | Active | 5.33 | Non-Toxic | inactive | inactive | IC50 [21]: 11.8 nM; IC50 [22]: 49.3 nM; Activity [23]: inactive; Activity [24]: inactive; Ki [25]: 6.06 nM; Activity [26]: Active; Activity [27]: Tde; Activity [28]: Active; Activity [29]: inactive; Activity [30]: Active; Activity [31]: Dose-Dependent Effect; half-life [32]: 7.13 h; Activity [33]: Active; Activity [34]: Tde; Activity [35]: inactive; MPE [36]: 75.33%; Activity [37]: Active |
| Cc1cc(O)cc(C)c1C[C@H](N)C(=O)N[C@H]1CSSC[C@@H](C(=O)NCC(=O)N[C@H](CCCNC(=N)N)C(=O)N[C@H](CCCNC(=N)N)C(=O)O)NC(=O)[C@H](Cc2ccc(Cl)cc2)NC(=O)[C@H](Cc2c[nH]c3ccccc23)NC1=O | inactive | Dose-Dependent Effect | 13.6 | 447 | Active | Active | 453 | 2090 | Active | Dose-Dependent Effect | 361 | 2.2 | 2.7 | Active | Active | Active | 5.58 | Non-Toxic | inactive | inactive | IC50 [21]: 9.21 nM; IC50 [22]: 47.5 nM; Activity [23]: inactive; Activity [24]: inactive; Ki [25]: 5.78 nM; Activity [26]: Active; Activity [27]: Tde; Activity [28]: Active; Activity [29]: inactive; Activity [30]: Active; Activity [31]: Dose-Dependent Effect; half-life [32]: 7.48 h; Activity [33]: Active; Activity [34]: Tde; Activity [35]: inactive; MPE [36]: 79.76%; Activity [37]: Active |

— ChEMBL document CHEMBL5029183 (J Med Chem, 2021)
